Holding throughout (format): cell-based
The test system of assay [1] is PC3 prostate cancer cell line. Description: Cell Titer Glo cell viability assay. An excerpt:
In this series of cell viability experiments, we used the highly sensitive Cell Titer Glo reagents from Promega in PC3 prostate cancer cell line. We compared the parental compound C3 effect on reducing cell viability with the best derivative compound, DBG-02-09.
(Cellular ATP, detected with luciferase, serves as a proxy for viable cell number.)

For assay [2], the system named is PC3 prostate cancer cell lines. The experiment in a line: CCK8 cell viability screen of derivatives. As to conditions: PC3, CCK8, day three. Here is the method:
FIGS. 22A-22B. Screen of all the derivatives made in Example 17 in CCK8 cell viability assay with PC3 prostate cancer cell lines at day 3 (FIG. 22A) and day 5 (FIG. 22B).
FIG. 23. All derivatives made in Example 17 are tested for cell inhibition percentage at day 3.
CCK8 cell viability assay with PC3 prostate cancer cell lines is conducted and cell viability on day 3, day 5 are examined, see FIGS. 22A-22B. Additionally, the cell inhibition percentage for compounds DBG1-191, 1-200, 02-09, 2-14, among others were further characterized in CCK8 assay against PC3.

The subject of assay [3] is endothelial vessel formation in vitro (tube formation). Description: Angiogenesis tube formation assay (derivatives). As to conditions: 30 uM, 7 hour incubation. Here is the method: FIGS. 28A-28F Representative images of tube formation. 7 hour incubation period with respective compounds: FIG. 28A, DMSO; FIG. 28B DBGII-3, 30 uM; FIG. 28C, EGCG, 30 uM; FIG. 28 D, DBGII-5, 30 uM, FIG. 28E, C3, 30 uM; FIG. 28 F, DBGII-9, 30 uM.
An angiogenesis tube formation assay was used to characterize the impact of compounds against endothelial vessel formation in vitro (i.e., tube formation).

The next assay has as its system PC-3 cells. The experiment in a line: PC-3 cell viability response to recombinant PEDF (CCK-8). As to conditions: 48 hours. Here is the method:
FIG. 13. PC-3 Cell Viability Response To Recombinant PEDF PC-3 cells were treated with 0.1 to 0.6 μM rPEDF for 48 hours and cell viability was measured using the CCK-8 assay (n=3, mean±SEM). A one-way ANOVA was used for statistical analysis (n.s. p=0.11) however the linear trend was significant (post test for linear trend, p<0.05).
Recombinant PEDF (BioProductsMD) was resuspended in PEDF Buffer (0.2 M NaCl, 20 mM sodium phosphate, and 1 mM DTT; ph 6.4). 1,500 cells per well were seeded in a clear 96-well plate in RPMI-1640 with 1% anti-anti and 10% FBS and allowed to grow overnight. A 0-hour recording was taken using CCK-8 and compared to a 48-hour reading after incubating PC-3 cells with recombinant PEDF (0.1 μM to […]) in RPMI-1640 with 1% anti-anti and 1% FBS. […] The adenovirus was administered intravenously (2×10^8 pfu/i.v.) 3 days following subcutaneous TC2-Ras cell implantation (10^4 or 10^5, without mAR (−mAR control) or with mAR (+mAR) in C57/BL6 male mice. Mice were injected intraperitoneally with 150 mg/kg Luciferin (10-20 min incubation) followed by a 5 min signal acquisition using an IVIS 100 imager (Caliper/PerkinElmer, Downers Grove, Ill.) and analyzed with LivingImage 3.1 software (Caliper/PerkinElmer), with signals reported as photons per second per […] per steridian (p/sec/cm^2/sr). Statistics. Statistical analysis was performed using GraphPad Prism 6. […]

Broadly, the IC50 is the concentration at which inhibition is half-maximal. Lower therefore signals inhibition by little substance. The molecule `CN(C)CCOc1ccccc1C(=O)N1CCN(C2c3ccccc3-c3ccccc32)CC1` [DBGII-09] had an IC50 in assay [1] (Homo sapiens, PC-3, PC3 cells) of 7.6 ± 0.52 µM. The “reduction of IC50 relative to parental compound C3” value in assay [1] (PC3 cells) is listed as 2.2 fold. Besides, the “cell inhibition percentage (rank among derivatives)” value in assay [2] is recorded as “highest inhibition”. Moreover, the tube formation result in assay [3] is “Thinning of tubes formed”. Take `O=C(c1ccccc1)N1CCN(C2c3ccccc3-c3ccccc32)CC1` [DBGII-05]: the tube formation result in assay [3] is reported as “Thinning of tubes formed”. On the same count and under the same terms, then `O=C(c1ccncc1Oc1ccccc1)N1CCN(C2c3ccccc3-c3ccccc32)CC1` [DBGII-03], with “Thinning of tubes formed”.

B1: recombinant PEDF: Recombinant pigment epithelium-derived factor (BioProductsMD), secreted glycoprotein (protein, UniProt P36955 20-418, looked up)
Pigment epithelium-derived …: QNPASPPEEGSPDPDSTGALVEEEDPFFKVPVNKLAAAVSNFGYDLYRVRSSTSPTTNVLLSPLSVATALSALSLGAEQRTESIIHRALYYDLISSPDIHGTYKELLDTVTAPQKNLKSASRIVFEKKLRIKSSFVAPLEKSYGTRPRVLTGNPRLDLQEINNWVQAQMKGKLARSTKEIPDEISILLLGVAHFKGQWVTKFDSRKTSLEDFYLDEERTVRVPMMSDPKAVLRYGLDSDLSCKIAQLPLTGSMSIIFFLPLKVTQNLTLIEESLTSEFIHDIDRELKTVQAVLTVPKLKLSYEGEVTKSLQEMKLQSLFDSPDFSKITGKPIKLTQVEHRAGFEWNEDGAGTTPSPGLQPAHLTFPLDYHLNQPFIFVLRDTDTGALLFIGKILDPRGP
On to B1, for which the “dose/response relationship for survival of PC-3 cells” value in the assay with PC-3 cells is reported as “unable to demonstrate a significant dose/response relationship”.

For the origin of these results see patent US11022604B2, “Dock derived compound against laminin receptor (37 LR) and uses thereof” (Purdue Research Foundation, priority 2017, dated 2021).
